Common to all, as to experiment: biochemical
Test [1] addresses T1, panel of 374 wild-type kinases (Homo sapiens, UniProt Q16539).
T1 construct: purchased Reaction Biology Corporation
Conditions: P38a/MAPK14, read-out: % Enzyme Activity (relative to DMSO controls).

For test [2], the target named is T2, panel of 374 wild-type kinases (Homo sapiens, UniProt P78362).
T2 construct: purchased Reaction Biology Corporation
To be noted: read-out: % Enzyme Activity (relative to DMSO controls), kinase SRPK2.

Test [3] addresses T3, panel of 374 wild-type kinases (Homo sapiens, UniProt P54753).
T3 construct: purchased Reaction Biology Corporation
T3 sequence (P54753 34-998): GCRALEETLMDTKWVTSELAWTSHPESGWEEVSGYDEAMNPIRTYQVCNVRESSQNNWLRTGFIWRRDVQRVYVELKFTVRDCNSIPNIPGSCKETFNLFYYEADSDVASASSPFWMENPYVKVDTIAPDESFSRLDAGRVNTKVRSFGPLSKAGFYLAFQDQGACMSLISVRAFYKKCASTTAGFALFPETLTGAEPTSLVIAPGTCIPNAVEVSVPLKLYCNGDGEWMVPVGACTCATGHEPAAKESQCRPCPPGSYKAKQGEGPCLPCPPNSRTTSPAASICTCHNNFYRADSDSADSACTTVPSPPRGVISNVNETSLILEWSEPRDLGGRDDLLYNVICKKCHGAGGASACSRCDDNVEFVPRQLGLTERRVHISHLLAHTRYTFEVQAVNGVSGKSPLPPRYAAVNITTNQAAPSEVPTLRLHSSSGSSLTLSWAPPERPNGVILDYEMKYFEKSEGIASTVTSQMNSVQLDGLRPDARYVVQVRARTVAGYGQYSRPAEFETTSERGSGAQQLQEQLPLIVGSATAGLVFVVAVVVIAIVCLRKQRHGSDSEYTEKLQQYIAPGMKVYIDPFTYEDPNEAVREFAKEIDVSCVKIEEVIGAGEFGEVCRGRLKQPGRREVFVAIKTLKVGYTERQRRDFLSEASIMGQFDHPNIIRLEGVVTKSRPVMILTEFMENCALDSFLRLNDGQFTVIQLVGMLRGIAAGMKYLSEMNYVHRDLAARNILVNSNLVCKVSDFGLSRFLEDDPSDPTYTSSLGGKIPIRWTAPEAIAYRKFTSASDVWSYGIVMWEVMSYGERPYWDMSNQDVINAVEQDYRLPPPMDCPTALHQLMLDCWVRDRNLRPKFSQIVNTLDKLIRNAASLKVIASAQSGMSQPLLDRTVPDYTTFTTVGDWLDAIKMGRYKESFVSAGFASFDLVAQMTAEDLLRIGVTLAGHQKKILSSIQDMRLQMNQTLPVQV
To be noted: read-out: % Enzyme Activity (relative to DMSO controls), EPHB3.

For test [4], the target named is T4, panel of 374 wild-type kinases (Homo sapiens, UniProt P54760).
T4 construct: purchased Reaction Biology Corporation
T4 sequence (P54760 16-987): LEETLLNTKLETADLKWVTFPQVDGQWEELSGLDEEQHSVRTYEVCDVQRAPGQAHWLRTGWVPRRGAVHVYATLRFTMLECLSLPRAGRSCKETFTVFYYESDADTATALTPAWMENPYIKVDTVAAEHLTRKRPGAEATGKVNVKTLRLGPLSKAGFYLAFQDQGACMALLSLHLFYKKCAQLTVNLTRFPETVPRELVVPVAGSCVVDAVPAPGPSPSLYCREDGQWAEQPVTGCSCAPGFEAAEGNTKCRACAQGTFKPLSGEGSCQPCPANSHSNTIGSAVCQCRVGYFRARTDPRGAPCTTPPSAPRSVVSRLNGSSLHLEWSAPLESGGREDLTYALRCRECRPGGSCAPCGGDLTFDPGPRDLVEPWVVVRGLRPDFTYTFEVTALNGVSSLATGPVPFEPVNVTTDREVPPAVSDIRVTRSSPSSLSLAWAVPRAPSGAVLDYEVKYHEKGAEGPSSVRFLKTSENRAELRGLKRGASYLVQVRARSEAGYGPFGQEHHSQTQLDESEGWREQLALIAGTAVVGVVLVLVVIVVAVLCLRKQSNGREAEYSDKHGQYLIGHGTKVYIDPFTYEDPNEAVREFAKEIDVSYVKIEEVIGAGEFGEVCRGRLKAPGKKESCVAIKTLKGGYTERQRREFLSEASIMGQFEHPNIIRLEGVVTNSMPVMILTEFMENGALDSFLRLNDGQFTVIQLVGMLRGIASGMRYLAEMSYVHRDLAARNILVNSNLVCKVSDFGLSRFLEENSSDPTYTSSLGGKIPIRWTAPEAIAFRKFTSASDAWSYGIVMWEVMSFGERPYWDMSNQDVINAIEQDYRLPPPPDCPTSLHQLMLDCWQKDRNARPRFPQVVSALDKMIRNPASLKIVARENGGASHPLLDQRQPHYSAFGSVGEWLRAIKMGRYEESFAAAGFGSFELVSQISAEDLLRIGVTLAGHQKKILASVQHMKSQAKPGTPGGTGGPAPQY
Conditions: read-out: % Enzyme Activity (relative to DMSO controls), EPHB4.

T2 sequence (P78362 whole entry): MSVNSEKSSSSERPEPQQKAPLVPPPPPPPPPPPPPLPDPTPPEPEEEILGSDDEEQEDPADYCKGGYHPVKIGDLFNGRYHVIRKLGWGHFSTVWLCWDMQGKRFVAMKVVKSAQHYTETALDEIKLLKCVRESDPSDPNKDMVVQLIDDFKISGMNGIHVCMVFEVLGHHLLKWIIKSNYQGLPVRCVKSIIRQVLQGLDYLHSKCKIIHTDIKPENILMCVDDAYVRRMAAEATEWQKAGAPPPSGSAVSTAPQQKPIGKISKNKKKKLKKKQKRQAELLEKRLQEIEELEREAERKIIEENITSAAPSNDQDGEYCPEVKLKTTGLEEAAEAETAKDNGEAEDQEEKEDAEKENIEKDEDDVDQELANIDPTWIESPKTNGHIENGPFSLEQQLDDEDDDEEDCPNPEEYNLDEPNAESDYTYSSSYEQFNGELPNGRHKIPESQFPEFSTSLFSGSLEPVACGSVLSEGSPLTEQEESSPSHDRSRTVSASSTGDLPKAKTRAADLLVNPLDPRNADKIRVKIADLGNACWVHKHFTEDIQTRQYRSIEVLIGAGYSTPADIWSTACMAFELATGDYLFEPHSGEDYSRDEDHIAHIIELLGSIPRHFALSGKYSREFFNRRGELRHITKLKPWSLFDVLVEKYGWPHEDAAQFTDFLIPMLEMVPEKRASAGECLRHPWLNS
T1 sequence (Q16539 whole entry): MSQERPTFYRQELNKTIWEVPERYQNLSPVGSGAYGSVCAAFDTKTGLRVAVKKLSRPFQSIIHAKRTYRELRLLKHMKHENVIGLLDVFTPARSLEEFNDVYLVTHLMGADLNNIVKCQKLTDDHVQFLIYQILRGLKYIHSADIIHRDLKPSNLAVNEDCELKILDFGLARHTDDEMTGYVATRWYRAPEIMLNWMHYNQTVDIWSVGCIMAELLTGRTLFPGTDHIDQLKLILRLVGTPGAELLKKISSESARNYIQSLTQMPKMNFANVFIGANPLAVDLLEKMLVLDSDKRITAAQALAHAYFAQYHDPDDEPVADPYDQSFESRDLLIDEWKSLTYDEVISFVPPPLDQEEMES

Take `O=C(Nc1cnn(-c2csc(C(=O)NC3COC3)c2)c1)Nc1ccccc1Cl` [Compound 17, 4-(4-(3-(2-chlorophenyl)ureido)-1H-pyrazol-1-yl)-N-(oxetan-3-yl)thiophene-2-carboxamide]: the remaining activity at 5 µM was found to be 142% in test [1], 95.6% in test [2], 95.6% in test [3] and 97.8% in test [4].
Regarding `O=C(Nc1cnn(-c2csc(C(=O)NC3COC3)c2)c1)Nc1c(F)cccc1Cl` [Compound 25, 4-(4-(3-(2-chloro-6-fluorophenyl)ureido)-1H-pyrazol-1-yl)-N-(oxetan-3-yl)thiophene-2-carboxamide], the remaining activity at 5 µM in test [1] came to 105%; in test [2], 94%; in test [3], 96.5%; in test [4], 98.1%.
With `Cc1sc(C(=O)NC2COC2)cc1-n1cc(NC(=O)Nc2c(F)cccc2Cl)cn1` [Compound 27, 4-(4-(3-(2-chloro-6-fluorophenyl)ureido)-1H-pyrazol-1-yl)-5-methyl-N-(oxetan-3-yl)thiophene-2-carboxamide], the remaining activity at 10 µM in test [1] (10 uM) was 93.2%; in test [2] (10 uM), 114%; in test [3] (10 uM), 97.2%; in test [4] (10 uM), 93.7%.

The record behind these values is patent publication US20240246942A1, “KINASE INHIBITORS FOR THE TREATMENT OF NEURODEGENERATIVE DISEASES” (priority 2020, published 2024).
